Data on 28 compounds can be found in US8829007B2 (priority 2009, dated 2014).

Broadly, the IC50 is the concentration at which inhibition is half-maximal. As a reminder, the EC50 is the midpoint of the concentration-response curve.

Assay [1] has as its system influenza A virus (A/PR/8/34). As to the kind of experiment: microbe, parasite or virus in culture. The assay is classed as cell-based.
Assay [2] concerns A/PR/8/34 influenza virus. Briefly: microbe, parasite or virus in culture. The assay is classed as cell-based.
[3] abbreviates: Influenza A virus, PR/8, MDCK, MDCK cells infected with A/PR/8/34, cell protection (CPE), read-out: IC50 (mean all).
[4] abbreviates: Influenza A virus, PR/8, MDCK, MDCK cells infected with A/PR/8/34, bDNA viral RNA, read-out: EC50 (mean all).
The mark [5] stands for this setting: Influenza A virus, PR/8, MDCK, mean all, A/PR/8/34 infected MDCK cells, CPE assay, read-out: IC50.
Where [6] appears, read: Influenza A virus, PR/8, MDCK, mean all, A/PR/8/34 influenza virus in MDCK cells, bDNA assay, read-out: EC50.
The mark [7] stands for this setting: Influenza A virus, PR/8, MDCK, CPE assay, A/PR/8/34 infected MDCK cells, class symbols, read-out: IC50 (mean all).
[8] abbreviates: Influenza A virus, PR/8, MDCK, bDNA assay, A/PR/8/34 influenza virus replication in MDCK cells, class symbols, read-out: EC50 (mean all).
The mark [9] stands for this setting: Influenza A virus, PR/8, MDCK, read-out: IC50 (mean all).
Where [10] appears, read: Influenza A virus, PR/8, MDCK, read-out: EC50 (mean all).
The mark [11] stands for this setting: Influenza A virus, PR/8, MDCK, MDCK cells infected with A/PR/8/34, survival of infected cells, class symbols, read-out: IC50 (mean all).
[12] abbreviates: Influenza A virus, PR/8, MDCK, MDCK cells infected with A/PR/8/34, replication of influenza virus (viral RNA, bDNA), class symbols, read-out: EC50 (mean all).

The structures appear in SMILES notation. Counter-ions that a name gives are not always drawn. Like-named read-outs stand apart in the source and are kept apart here.

Turning to `O=S(=O)(/C=C/c1ccccc1)N1CCC[C@H](CNc2nc(-c3c[nH]c4ncc(Cl)cc34)ncc2F)C1` [Compound 60, (R,E)-2-(5-chloro-1H-pyrrolo[2,3-b]pyridin-3-yl)-5-fluoro-N-((1-(styrylsulfonyl)piperidin-3-yl)methyl)pyrimidin-4-amine], in assay [1] (setting [3]), the IC50 was less than 5 µM. For the same compound, the EC50 in assay [2] (setting [4]) was less than 5 µM.
For `COCCC(=O)N1CCC[C@H](Nc2nc(-c3c[nH]c4ncc(Cl)cc34)ncc2F)C1` [Compound 396], the concentration for half-maximal inhibition (IC50) in assay [1] (setting [5]) was less than 5 µM. The EC50 in assay [2] (setting [6]) is less than 5 µM.
For the compound `O=C1CC[C@H](C(=O)N2CCC[C@@H](CNc3nc(-c4c[nH]c5ncc(Cl)cc45)ncc3F)C2)O1` [Compound 51, (R)-5-((S)-3-((2-(5-chloro-1H-pyrrolo[2,3-b]pyridin-3-yl)-5-fluoropyrimidin-4-ylamino)methyl)piperidine-1-carbonyl)dihydrofuran-2(3H)-one], the concentration for half-maximal inhibition (IC50) in assay [1] (setting [3]) was less than 5 µM. In addition, the concentration giving a half-maximal response (EC50) in assay [2] (setting [4]) is less than 5 µM.
For the compound `CC(O)CC(=O)N[C@@H]1CCC[C@H](Nc2nc(-c3c[nH]c4ncc(Cl)cc34)ncc2F)C1` (stereo partly drawn) [Compound 640, N-[(1R,3S)-3-[[2-(5-chloro-1H-pyrrolo[2,3-b]pyridin-3-yl)-5-fluoro-pyrimidin-4-yl]amino]cyclohexyl]-3-hydroxy-butanamide hydrochloride], the 50% inhibitory concentration (IC50) in assay [1] (setting [7]) is less than 5 µM. The concentration giving a half-maximal response (EC50) in assay [2] (setting [8]) is less than 5 µM.
For the compound `CCNC(=O)N1CCCC[C@@H]1CNc1nc(-c2c[nH]c3ncccc23)ncc1F` [Compound 373, (R)—N-ethyl-2-((5-fluoro-2-(1H-pyrrolo[2,3-b]pyridin-3-yl)pyrimidin-4-ylamino)-methyl)piperidine-1-carboxamide], the concentration for half-maximal inhibition (IC50) in assay [1] (setting [5]) was in the range of 5 to 20 µM. Besides, in assay [2] (setting [6]), the 50% effective concentration (EC50) was more than 10 µM.
Regarding `COc1ccccc1OC(=O)N1CCC[C@H](CNc2nc(-c3c[nH]c4ncc(Cl)cc34)ncc2F)C1` [Compound 69, (R)-2-methoxyphenyl 3-((2-(5-chloro-1H-pyrrolo[2,3-b]pyridin-3-yl)-5-fluoropyrimidin-4-ylamino)methyl)piperidine-1-carboxylate], in assay [1] (setting [9]), the half-maximal inhibitory concentration (IC50) was less than 5 µM. For the same compound, the EC50 in assay [2] (setting [10]) is less than 5 µM.
On to `O=C(N[C@@H]1CCC[C@H](Nc2nc(-c3c[nH]c4ncc(Cl)cc34)ncc2F)C1)C1CNCCO1` (stereo partly drawn) [Compound 637, N-[(1R,3S)-3-[[2-(5-chloro-1H-pyrrolo[2,3-b]pyridin-3-yl)-5-fluoro-pyrimidin-4-yl]amino]cyclohexyl]morpholine-2-carboxamide bishydrochloride], for which, in assay [1] (setting [7]), the half-maximal inhibitory concentration (IC50) was less than 5 µM. For the same compound, the EC50 in assay [2] (setting [8]) was less than 5 µM.
Consider `O=C(c1ccc(F)cc1F)N1CCC[C@H](CNc2nc(-c3c[nH]c4ncc(Cl)cc34)ncc2F)C1` [Compound 152, (R)-(3-((2-(5-chloro-1H-pyrrolo[2,3-b]pyridin-3-yl)-5-fluoropyrimidin-4-ylamino)methyl)piperidin-1-yl)(2,4-difluorophenyl)methanone], for which the IC50 in assay [1] (setting [3]) was less than 5 µM. The concentration for a half-maximal effect (EC50) in assay [2] (setting [4]) is less than 5 µM.
For `CC(=O)N1CCCC[C@@H]1CNc1nc(-c2c[nH]c3ncc(Cl)cc23)ncc1F` [Compound 179, (R)-1-(2-((2-(5-chloro-1H-pyrrolo[2,3-b]pyridin-3-yl)-5-fluoropyrimidin-4-ylamino)methyl)piperidin-1-yl)ethanone], in assay [1] (setting [3]), the IC50 was less than 5 µM. In addition, the 50% effective concentration (EC50) in assay [2] (setting [4]) is less than 5 µM.
`COC(=O)N1CCC[C@@H](CNc2nc(-c3c[nH]c4ncc(Cl)cc34)ncc2F)C1` [Compound 23, (S)-methyl 3-((2-(5-chloro-1H-pyrrolo[2,3-b]pyridin-3-yl)-5-fluoropyrimidin-4-ylamino)methyl)piperidine-1-carboxylate]: the half-maximal inhibitory concentration (IC50) in assay [1] (setting [3]) was less than 5 µM. Moreover, the EC50 in assay [2] (setting [4]) was less than 5 µM.
Turning to `COCC(=O)N[C@@H]1CCCC[C@H]1CNc1nc(-c2c[nH]c3ncc(Cl)cc23)ncc1F` (relative stereo) [Compound 556, N-(trans-2-((2-(5-chloro-1H-pyrrolo[2,3-b]pyridin-3-yl)-5-fluoropyrimidin-4-ylamino)methyl)cyclohexyl)-2-methoxyethanamide], the IC50 in assay [1] (setting [11]) was more than 10 µM. Besides, the 50% effective concentration (EC50) in assay [2] (setting [12]) was less than 5 µM.
For the compound `CCCCNC(=O)N1CCC[C@H](Nc2nc(-c3c[nH]c4ncc(Cl)cc34)ncc2F)C1` [Compound 323], in assay [1] (setting [5]), the IC50 was more than 20 µM. The EC50 in assay [2] (setting [6]) is less than 5 µM.
For `CC(C)OC(=O)[C@H]1CCCC[C@@H]1Nc1nc(-c2c[nH]c3ncc(Cl)cc23)ncc1F` [Compound 569, (1S,2S)-isopropyl 2-(2-(5-chloro-1H-pyrrolo[2,3-b]pyridin-3-yl)-5-fluoropyrimidin-4-ylamino)cyclohexanecarboxylate], the IC50 in assay [1] (setting [11]) is more than 10 µM. For the same compound, the concentration for a half-maximal effect (EC50) in assay [2] (setting [12]) was more than 10 µM.
As for `CCOC(=O)N1CCOCC1CNc1nc(-c2c[nH]c3ncc(Cl)cc23)ncc1F` (centres unmarked) [Compound 527, Ethyl 3-((2-(5-chloro-1H-pyrrolo[2,3-b]pyridin-3-yl)-5-fluoropyrimidin-4-ylamino)methyl)morpholine-4-carboxylate], the IC50 in assay [1] (setting [11]) was more than 20 µM. For the same compound, the EC50 in assay [2] (setting [12]) was more than 10 µM.
In the case of `CCC1(O)CCCC(Nc2nc(-c3c[nH]c4ncc(Cl)cc34)ncc2F)C1` (centres unmarked) [Compound 626], the half-inhibitory concentration (IC50) in assay [1] (setting [7]) is less than 5 µM. Also, the half-maximal effective concentration (EC50) in assay [2] (setting [8]) is less than 5 µM.
With `COc1ccc(C(=O)N2CCC[C@H](CNc3nc(-c4c[nH]c5ncc(Cl)cc45)ncc3F)C2)c(OC)c1` [Compound 154, (R)-(3-((2-(5-chloro-1H-pyrrolo[2,3-b]pyridin-3-yl)-5-fluoropyrimidin-4-ylamino)methyl)piperidin-1-yl)(2,4-dimethoxyphenyl)methanone], the half-inhibitory concentration (IC50) in assay [1] (setting [3]) fell in the range of 5 to 20 µM. Besides, in assay [2] (setting [4]), the EC50 was less than 5 µM.
With `CC1(O)CCC[C@H](Nc2nc(-c3c[nH]c4ncc(Cl)cc34)ncc2F)C1` (some centres unmarked) [Compound 572], in assay [1] (MDCK cells infected with A/PR/8/34, survival of infected cells, class symbols, read-out: IC50 (mean all)), the IC50 is less than 5 µM. Moreover, in assay [2] (MDCK cells infected with A/PR/8/34, replication of influenza virus (viral RNA, bDNA), class symbols, read-out: EC50 (mean all)), the half-maximal effective concentration (EC50) is less than 5 µM.
Consider `O=S(=O)(c1cccs1)N1CCCC(CNc2nc(-c3c[nH]c4ncc(Cl)cc34)ncc2F)C1` (centres unmarked) [Compound 89], for which the IC50 in assay [1] (setting [3]) was less than 5 µM. In addition, in assay [2] (setting [4]), the EC50 was less than 5 µM.
Turning to `O=C(O)C1CCCCC1Nc1nc(-c2c[nH]c3ncc(Cl)cc23)nc(C(O)CO)c1F` (centres unmarked) [Compound 687], the IC50 in assay [1] (mean all, MDCK cells infected with A/PR/8/34, cell protection (CPE), read-out: IC50) is less than 5 µM. Besides, the EC50 in assay [2] (mean all, bDNA viral RNA in MDCK cells infected with A/PR/8/34, read-out: EC50) is more than 3.3 µM.
As for `O=C(Oc1ccccc1)N1CCC[C@H](CNc2nc(-c3c[nH]c4ncc(Cl)cc34)ncc2F)C1` [Compound 68, (R)-phenyl 3-((2-(5-chloro-1H-pyrrolo[2,3-b]pyridin-3-yl)-5-fluoropyrimidin-4-ylamino)methyl)piperidine-1-carboxylate], the IC50 in assay [1] (setting [9]) was in the range of 5 to 20 µM. Moreover, in assay [2] (setting [10]), the concentration for a half-maximal effect (EC50) is less than 5 µM.
As to `O=C(O)[C@H]1CCCC[C@@H]1Nc1nc(-c2c[nH]c3ncc(Cl)cc23)ncc1F` [Compound 553, (1S,2S)-2-[[2-(5-chloro-1H-pyrrolo[5,4-b]pyridin-3-yl)-5-fluoro-pyrimidin-4-yl]amino]cyclohexane-1-carboxylic acid], in assay [1] (setting [11]), the IC50 was less than 5 µM. Also, the EC50 in assay [2] (setting [12]) is less than 5 µM.
In the case of `O=C(O)[C@@H]1CCCC[C@@H]1Nc1nc(-c2c[nH]c3ncc(Cl)cc23)ncc1F` (relative stereo) [Compound 559, Cis-2-(2-(5-chloro-1H-pyrrolo[2,3-b]pyridin-3-yl)-5-fluoropyrimidin-4-ylamino)cyclohexanecarboxylic acid], the IC50 in assay [1] (setting [11]) is less than 5 µM. The half-maximal effective concentration (EC50) in assay [2] (setting [12]) was less than 5 µM.
Consider `O=S(=O)(CCCCl)N1CCCC[C@@H]1CNc1nc(-c2c[nH]c3ncc(Cl)cc23)ncc1F` [Compound 330, (R)-2-(5-chloro-1H-pyrrolo[2,3-b]pyridin-3-yl)-N-((1-(3-chloropropylsulfonyl)piperidin-2-yl)methyl)-5-fluoropyrimidin-4-amine], for which the IC50 in assay [1] (setting [5]) was less than 5 µM. For the same compound, the EC50 in assay [2] (setting [6]) was less than 5 µM.
Regarding `C#CC1(O)CCCC(Nc2nc(-c3c[nH]c4ncc(Cl)cc34)ncc2F)C1` (centres unmarked) [Compound 617], the IC50 in assay [1] (CPE assay, A/PR/8/34 infected MDCK cells, class symbols, read-out: IC50 (mean all)) was less than 5 µM. Moreover, the EC50 in assay [2] (bDNA assay, A/PR/8/34 influenza virus replication in MDCK cells, class symbols, read-out: EC50 (mean all)) was less than 5 µM.
On to `CC(C)S(=O)(=O)N1CCC[C@@H](Nc2nc(-c3c[nH]c4ncc(Cl)cc34)ncc2F)C1` [Compound 322, (R)-2-(5-chloro-1H-pyrrolo[2,3-b]pyridin-3-yl)-5-fluoro-N-(1-(isopropylsulfonyl)-piperidin-3-yl)pyrimidin-4-amine], for which, in assay [1] (setting [5]), the 50% inhibitory concentration (IC50) is more than 20 µM. Also, in assay [2] (setting [6]), the concentration giving a half-maximal response (EC50) is less than 5 µM.
Regarding `NC(=O)N1CCC[C@H](Nc2nc(-c3c[nH]c4ncc(Cl)cc34)ncc2F)C1` [Compound 507], the IC50 in assay [1] (setting [11]) was less than 5 µM. Besides, the EC50 in assay [2] (setting [12]) is less than 5 µM.
Turning to `OCC1(O)CCCC(Nc2nc(-c3c[nH]c4ncc(Cl)cc34)ncc2F)C1` (centres unmarked) [Compound 646], the half-inhibitory concentration (IC50) in assay [1] (setting [7]) was less than 5 µM. Further, the half-maximal effective concentration (EC50) in assay [2] (setting [8]) is less than 5 µM.
Regarding `CC(=O)N1CCCC(Nc2nc(-c3c[nH]c4ncc(Cl)cc34)ncc2F)CC1` (centres unmarked) [Compound 497, 1-(4-(2-(5-chloro-1H-pyrrolo[2,3-b]pyridin-3-yl)-5-fluoropyrimidin-4-ylamino)azepan-1-yl)ethanone], the IC50 in assay [1] (setting [11]) was less than 5 µM. In addition, in assay [2] (setting [12]), the EC50 was less than 5 µM.
